From patent US9980945B2, “Benzoisoxazole-substituted compounds as MGLUR4 allosteric potentiators, compositions, and methods of treating neurological dysfunction” (Vanderbilt University, priority 2015, dated 2018)

Biological target: mGluR4 (UniProt Q14833)
Assay: mGluR4 potentiation assay (EC50 for potentiation at EC20 agonist; fluorometric plate reader, Ca2+ or thallium dye)
Assay type: cell-based
Conditions: potentiation of mGluR4; species of receptor not given
Description: The disclosed compounds and compositions can be evaluated for their ability to act as a potentiator of metabotropic glutamate receptor activity, in particular mGluR4 activity, by any suitable known methodology known in the art. For example, Chinese Hamster Ovary (CHO) cells transacted with human mGluR4 or HEK cells co-transfected with rat mGluR4 and the G-protein regulated Inwardly Rectifying Potassium channel (GIRK) were plated in clear bottom assay plates for assay in a Hamamatsu FDSS Fluorometric Plate Reader. The cells were loaded with either a Ca2+-sensitive fluorescent dye or the thallium responsive dye and the plates were washed and placed into a suitable kinetic plate reader. For human mGluR4 assays, a fluorescence baseline was established for 3-5 seconds, the disclosed compounds were then added to the cells, and the response in cells was measured. Approximately two and a half minutes later, a concentration of mGluR4 orthosteric agonist (e.g. glutamate or L-AP4) eliciting approximately 20% (EC20) of the maximal agonist response was added to the cells, and the response was measured. Two minutes later, a concentration of mGluR4 agonist (e.g. glutamate or L-AP4) eliciting 80% (EC80) of the maximal agonist response was added to the cells, and the response was measured. For rat mGluR4/GIRK experiments, a baseline was established for approximately five seconds, disclosed compounds were added, and either an EC20 or EC80 concentration of agonist was added approximately two and one half minutes later. Potentiation of the agonist response of mGluR4 by the disclosed compounds was observed as an increase in response to the EC20 concentration of agonist in the presence of compound compared to the response to agonist in the absence of compound. Similarly, antagonism of the agonist response of mGluR4 by the disclosed compounds was observed as a decrease in response to the EC80 concentration of agonist in the presence of compound compared to the response to agonist in the absence of compound.
The above described assay operated in two modes. In the first mode, a range of concentrations of the disclosed compounds are added to cells, followed by a single fixed concentration of agonist. If the compound acts as a potentiator, an EC50 so value for potentiation and a maximum extent of potentiation by the compound at this concentration of agonist is determined by non-linear curve fitting. If the compound acts as a noncompetitive antagonist, an IC50 value is determined by non-linear curve fitting. In the second mode, several fixed concentrations of the disclosed compounds are added to various wells on a plate, followed by a range in concentrations of agonist for each concentration of disclosed compound. The EC50 values for the agonist at each concentration of compound are determined by non-linear curve fitting. A decrease in the EC50 value of the agonist with increasing concentrations of the sample compound (a leftward shift of the agonist concentration-response curve) is an indication of the degree of mGluR4 potentiation at a given concentration of the sample compound. A decrease in the maximal response of the agonist with increasing concentrations of the sample compounds, with or without a rightward shift in agonist potency, is an indication of the degree of noncompetitive antagonism at mGluR4. The second mode also indicates whether the sample compounds also affect the maximum response to mGluR4 to agonists.

SMILES | EC50 [nM]
CC1(COc2noc3cc(Nc4n[nH]c5cccnc45)ccc23)COC1 [Example 41, 3-[(3-methyloxetan-3-yl)methoxy]-N-(1H-pyrazolo[4,3-b]pyridin-3-yl)-1,2-benzoxazol-6-amine] | 2820
O=C(NC1CCC1)c1noc2cc(Nc3n[nH]c4cccnc34)ccc12 [Example 53, N-cyclobutyl-6-(1H-pyrazolo[4,3-b]pyridin-3-ylamino)-1,2-benzoxazole-3-carboxamide] | 672
O=C(NC1CC(F)C1)c1noc2cc(Nc3n[nH]c4cccnc34)ccc12 (stereo not drawn) [Example 54, N-(3-fluorocyclobutyl)-6-(1H-pyrazolo[4,3-b]pyridin-3-ylamino)-1,2-benzoxazol-3-carboxamide] | 764
CC(C)(C)CNCc1noc2cc(Nc3n[nH]c4cccnc34)ccc12 [Example 77, 3-[(2,2-dimethylpropylamino)methyl]-N-(1H-pyrazolo[4,3-b]pyridin-3-yl)-1,2-benzoxazol-6-amine] | 539
C[C@@H](NCc1noc2cc(Nc3n[nH]c4cccnc34)ccc12)C(C)(C)C [Example 79, N-(1H-pyrazolo[4,3-b]pyridin-3-yl)-3-[[[(1R)-1,2,2-trimethylpropyl]amino]methyl]-1,2-benzoxazol-6-amine] | 622
CCC(CC)c1noc2cc(Nc3n[nH]c4nccnc34)ccc12 [Example 83, 3-(1-ethylpropyl)-N-(1H-pyrazolo[3,4-b]pyrazin-3-yl)-1,2-benzoxazol-6-amine] | 97.1
CCC(CC)c1noc2cc(Nc3n[nH]c4ncccc34)ccc12 [Example 84, 3-(1-ethylpropyl)-N-(1H-pyrazolo[3,4-b]pyridin-3-yl)-1,2-benzoxazol-6-amine] | 522
CCC(CC)c1noc2cc(Nc3n[nH]c4cccnc34)ccc12 [Example 85, 3-(1-ethylpropyl)-N-(1H-pyrazolo[4,3-b]pyridin-3-yl)-1,2-benzoxazol-6-amine] | 132
CCCC(C)c1noc2cc(Nc3n[nH]c4cccnc34)ccc12 (stereo not drawn) [Example 94, 3-(1-methylbutyl)-N-(1H-pyrazolo[4,3-b]pyridin-3-yl)-1,2-benzoxazol-6-amine] | 118
CCCC(C)c1noc2cc(Nc3n[nH]c4ncccc34)ccc12 (stereo not drawn) [Example 95, 3-(1-methylbutyl)-N-(1H-pyrazolo[3,4-b]pyridin-3-yl)-1,2-benzoxazol-6-amine] | 673
CCCC(C)c1noc2cc(Nc3n[nH]c4ncc(F)cc34)ccc12 (stereo not drawn) [Example 96, N-(5-fluoro-1H-pyrazolo[3,4-b]pyridin-3-yl)-3-(1-methylbutyl)-1,2-benzoxazol-6-amine] | 418
CCCC(C)c1noc2cc(Nc3n[nH]c4nccnc34)ccc12 (stereo not drawn) [Example 98, 3-(1-methylbutyl)-N-(1H-pyrazolo[3,4-b]pyrazin-3-yl)-1,2-benzoxazol-6-amine] | 172
FC(F)(F)CCc1noc2cc(Nc3n[nH]c4nccnc34)ccc12 [Example 100, N-(1H-pyrazolo[3,4-b]pyrazin-3-yl)-3-(3,3,3-trifluoropropyl)-1,2-benzoxazol-6-amine] | 192
Cc1noc2ccc(Nc3n[nH]c4ncc(F)cc34)cc12 [Example 104, N-(5-fluoro-1H-pyrazo!o[3,4-b]pyridin-3-yl)-3-methyl-1,2-benzoxazol-5-amine] | 216
Cc1noc2c(F)cc(Nc3n[nH]c4cccnc34)cc12 [Example 105, 7-fluoro-3-methyl-N-(1H-pyrazolo[4,3-b]pyridin-3-yl)-1,2-benzoxazol-5-amine] | 77.1
Cc1noc2c(F)cc(Nc3n[nH]c4nccnc34)cc12 [Example 106, 7-fluoro-3-methyl-N-(1H-pyrazolo[3,4-b]pyrazin-3-yl)-1,2-benzoxazol-5-amine] | 23.1
Cc1noc2c(F)cc(Nc3n[nH]c4ncccc34)cc12 [Example 107, 7-fluoro-3-methyl-N-(1H-pyrazolo[3,4-b]pyridin-3-yl)-1,2-benzoxazol-5-amine] | 53.1
FC(F)(F)CCc1noc2cc(Nc3n[nH]c4cccnc34)ccc12 [Example 109, N-(1H-pyrazolo[4,3-b]pyridin-3-yl)-3-(3,3,3-trifluoropropyl)-1,2-benzoxazol-6-amine] | 416
Cn1ncc2cc(Cc3noc4cc(Nc5n[nH]c6cccnc56)ccc34)ccc21 [Example 112, 3-[(1-methylindazol-5-yl)methyl]-N-(1H-pyrazolo[4,3-b]pyridin-3-yl)-1,2-benzoxazol-6-amine] | 74.8
Cn1ncc2cc(Cc3noc4cc(Nc5n[nH]c6nccnc56)ccc34)ccc21 [Example 114, 3-[(1-methylindazol-5-yl)methyl]-N-(1H-pyrazolo[3,4-b]pyrazin-3-yl)-1,2-benzoxazol-6-amine] | 42.3
c1cnc2c(Nc3ccc4c(CN5CCOCC5)noc4c3)n[nH]c2c1 [Example 133, 3-(morpholinomethyl)-N-(1H-pyrazolo[4,3-b]pyridin-3-yl)-1,2-benzoxazol-6-amine; 2,2,2-trifluoroacetic acid] | 5770
CCCCC(C)(F)c1noc2cc(Nc3n[nH]c4cccnc34)ccc12 (stereo not drawn) [Example 134, 3-(1-fluoro-1-methyl-pentyl)-N-(1H-pyrazolo[4,3-b]pyridin-3-yl)-1,2-benzoxazol-6-amine] | 2660
CCCCC(F)(F)c1noc2cc(Nc3n[nH]c4cccnc34)ccc12 [Example 136, 3-(1,1-difluoropentyl)-N-(1H-pyrazolo[4,3-b]pyridin-3-yl)-1,2-benzoxazol-6-amine] | > 10000
CC(NCC(C)(C)C)c1noc2cc(Nc3n[nH]c4cccnc34)ccc12 (stereo not drawn) [Example 137, 3-[1-(2,2-dimethylpropylamino)ethyl]-N-(1H-pyrazolo[4,3-b]pyridin-3-yl)-1,2-benzoxazol-6-amine] | 822
CCCCC(F)(F)c1noc2cc(Nc3n[nH]c4ncccc34)ccc12 [Example 138, 3-(1,1-difluoropentyl)-N-(1H-pyrazolo[3,4-b]pyridin-3-yl)-1,2-benzoxazol-6-amine] | > 10000
CC(c1ccc(=O)[nH]c1)c1noc2cc(Nc3n[nH]c4cccnc34)ccc12 (stereo not drawn) [Example 139, 5-[1-[6-(1H-pyrazolo[4,3-b]pyridin-3-ylamino)-1,2-benzoxazol-3-yl]ethyl]-1H-pyridin-2-one] | > 10000
O=C(Cc1noc2cc(Nc3n[nH]c4cccnc34)ccc12)NC1CC(F)(F)C1 [Example 140, N-(3,3-difluorocyclobutyl)-2-[6-(1H-pyrazolo[4,3-b]pyridin-3-ylamino)-1,2-benzoxazol-3-yl]acetamide] | > 10000
O=C(Cc1noc2cc(Nc3n[nH]c4nccnc34)ccc12)NC1CC(F)(F)C1 [Example 141, N-(3,3-difluorocyclobutyl)-2-[6-(1H-pyrazolo[3,4-b]pyrazin-3-ylamino)-1,2-benzoxazol-3-yl]acetamide] | 277
O=C(Cc1noc2cc(Nc3n[nH]c4ncccc34)ccc12)NC1CC(F)(F)C1 [Example 142, N-(33-difluorocyclobutyl)-2-[6-(1H pyrazolo[3,4-b]pyridin-3-ylamino)-1,2-benzoxazol-3-yl]acetamide] | > 10000
O=C(Cc1noc2cc(Nc3n[nH]c4cccnc34)ccc12)N1CCOCC1 [Example 143, 1-morpholino-2-[6-(1H-pyrazolo[4,3-b]pyridin-3-ylamino)-1,2-benzoxazol-3-yl]ethanone] | 1360
